Measurements as given in patent US12404295B2, “(Hetero)aryl-methyl-thio-beta-D-galactopyranoside derivatives” (Idorsia Pharmaceuticals Ltd, priority 2019, dated 2025).
Read-outs that look alike come from different tables or passages of the source.

How the values were obtained:
human Gal-1 (hGal-1) = human Gal-1 (hGal-1) (Homo sapiens (Human), UniProt P09382); test: competitive binding assay: biotinylated hGal-1 binding to microplate-adsorbed asialofetuin (ASF); conditions: Table 15; read-out: IC50 (Galectin-1 inhibition)
Summary of the method: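 Biotinylated human Gal-1 (300-1000 ng/mL) competes with serially diluted compound for binding to ASF-coated plates, 3 h at 4° C. Bound protein detected with streptavidin-peroxidase and ABTS substrate (spectrophotometric). IC50 given as mean of several measurements.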

human Gal-3 (hGal-3) = human Gal-3 (hGal-3) (Homo sapiens (Human), UniProt P17931); test: competitive binding assay: biotinylated hGal-3 binding to microplate-adsorbed asialofetuin (ASF)
Summary of the method: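 Peroxidase activity developed with ABTS measures the biotinylated hGal-3 remaining on the asialofetuin-coated surface after competition with test compounds. Incubation ran 3 h at 4 °C, followed by 1 h with streptavidin-peroxidase at 80 ng/mL.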

[1] = Table 5, read-out: IC50 (Gal-3 inhibition)
[2] = Table 11, read-out: IC50 (Gal-3 inhibition)
[3] = Table 9, 2-OMe-Gal inhibitors, read-out: IC50 (Gal-3 inhibition)
[4] = Gal-3 inhibition, binding of biotinylated hGal-3 to ASF, mean values, read-out: IC50

Sequence of human Gal-3 (hGal-3) (P17931 whole entry): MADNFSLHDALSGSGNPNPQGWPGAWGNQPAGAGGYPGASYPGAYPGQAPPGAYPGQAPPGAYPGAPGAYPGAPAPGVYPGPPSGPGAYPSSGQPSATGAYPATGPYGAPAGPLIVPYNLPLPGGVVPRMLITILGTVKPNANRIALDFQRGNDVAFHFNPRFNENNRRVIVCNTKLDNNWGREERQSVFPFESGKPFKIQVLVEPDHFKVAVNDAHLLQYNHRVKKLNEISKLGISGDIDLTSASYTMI
Sequence of human Gal-1 (hGal-1) (P09382 whole entry): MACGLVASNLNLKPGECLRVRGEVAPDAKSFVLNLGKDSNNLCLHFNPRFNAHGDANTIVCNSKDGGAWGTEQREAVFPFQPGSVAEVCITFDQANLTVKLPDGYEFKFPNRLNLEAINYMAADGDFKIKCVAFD

| SMILES | IC50 (human Gal-1 (hGal-1)) | IC50 (human Gal-3 (hGal-3); [1]) | IC50 (human Gal-3 (hGal-3); [4]) | also measured |
| --- | --- | --- | --- | --- |
| Cc1nc(C)c([C@@H](S[C@@H]2O[C@H](CO)[C@H](O)[C@H](n3cc(-c4cc(F)c(F)c(F)c4)nn3)[C@H]2O)C2(O)CCC(F)(F)CC2)nc1C [Example 2.44.119R., (2S,3R,4S,5R,6R)-2-(((R)-(4,4-Difluoro-1-hydroxycyclohexyl)(3,5,6-trimethylpyrazin-2-yl)methyl)thio)-6-(hydroxymethyl)-4-(4-(3,4,5-trifluorophenyl)-1H-1,2,3-triazol-1-yl)tetrahydro-2H-pyran-3,5-diol] | 230 nM | 30 nM | – | – |
| CO[C@@H]1[C@@H](n2cc(-c3cc(F)c(F)c(F)c3)nn2)[C@@H](O)[C@@H](CO)O[C@H]1S[C@H](c1nc(C)c(C)nc1C)C1(O)CCC(F)(F)CC1 [Example 2.44.119R.I., (2R,3R,4S,5R,6S)-6-(((R)-(4,4-Difluoro-1-hydroxycyclohexyl)(3,5,6-trimethylpyrazin-2-yl)methyl)thio)-2-(hydroxymethyl)-5-methoxy-4-(4-(3,4,5-trifluorophenyl)-1H-1,2,3-triazol-1-yl)tetrahydro-2H-pyran-3-ol] | 450 nM | – | – | IC50 (human Gal-3 (hGal-3); [2]): 90 nM |
| Cc1nc(C)c([C@H](S[C@@H]2O[C@H](CO)[C@H](O)[C@H](n3cc(-c4cc(F)c(F)c(F)c4)nn3)[C@H]2O)C2(O)CCC(F)(F)CC2)nc1C [Example 2.44.119S., (2S,3R,4S,5R,6R)-2-(((S)-(4,4-Difluoro-1-hydroxycyclohexyl)(3,5,6-trimethylpyrazin-2-yl)methyl)thio)-6-(hydroxymethyl)-4-(4-(3,4,5-trifluorophenyl)-1H-1,2,3-triazol-1-yl)tetrahydro-2H-pyran-3,5-diol] | 7210 nM | 700 nM | – | – |
| CO[C@@H]1[C@@H](n2cc(-c3cc(F)c(F)c(F)c3)nn2)[C@@H](O)[C@@H](CO)O[C@H]1S[C@@H](c1nc(C)c(C)nc1C)C1(O)CCC(F)(F)CC1 [Example 2.44.119S.I., (2R,3R,4S,5R,6S)-6-(((S)-(4,4-Difluoro-1-hydroxycyclohexyl)(3,5,6-trimethylpyrazin-2-yl)methyl)thio)-2-(hydroxymethyl)-5-methoxy-4-(4-(3,4,5-trifluorophenyl)-1H-1,2,3-triazol-1-yl)tetrahydro-2H-pyran-3-ol] | 28600 nM | – | – | IC50 (human Gal-3 (hGal-3); [2]): 5110 nM |
| Cc1conc1[C@@H](S[C@@H]1O[C@H](CO)[C@H](O)[C@H](n2cc(-c3cc(F)c(F)c(F)c3)nn2)[C@H]1O)C1(O)CCC(F)(F)CC1 [Example 2.44.120R., (2S,3R,4S,5R,6R)-2-(((R)-(4,4-Difluoro-1-hydroxycyclohexyl)(4-methylisoxazol-3-yl)methyl)thio)-6-(hydroxymethyl)-4-(4-(3,4,5-trifluorophenyl)-1H-1,2,3-triazol-1-yl)tetrahydro-2H-pyran-3,5-diol] | 380 nM | 110 nM | – | – |
| CO[C@@H]1[C@@H](n2cc(-c3cc(F)c(F)c(F)c3)nn2)[C@@H](O)[C@@H](CO)O[C@H]1S[C@H](c1nocc1C)C1(O)CCC(F)(F)CC1 [Example 2.44.120R.I., (2R,3R,4S,5R,6S)-6-(((R)-(4,4-Difluoro-1-hydroxycyclohexyl)(4-methylisoxazol-3-yl)methyl)thio)-2-(hydroxymethyl)-5-methoxy-4-(4-(3,4,5-trifluorophenyl)-1H-1,2,3-triazol-1-yl)tetrahydro-2H-pyran-3-ol] | 610 nM | – | – | IC50 (human Gal-3 (hGal-3); Table 10, 2-OMe-Gal inhibitors, read-out: IC50 (Gal-3 inhibition)): 210 nM |
| Cc1conc1[C@H](S[C@@H]1O[C@H](CO)[C@H](O)[C@H](n2cc(-c3cc(F)c(F)c(F)c3)nn2)[C@H]1O)C1(O)CCC(F)(F)CC1 [Example 2.44.120S., (2S,3R,4S,5R,6R)-2-(((S)-(4,4-Difluoro-1-hydroxycyclohexyl)(4-methylisoxazol-3-yl)methyl)thio)-6-(hydroxymethyl)-4-(4-(3,4,5-trifluorophenyl)-1H-1,2,3-triazol-1-yl)tetrahydro-2H-pyran-3,5-diol] | 22600 nM | 8270 nM | – | – |
| OC[C@H]1O[C@@H](S[C@H](c2ncccc2C(F)(F)F)C2(O)CCC(F)(F)CC2)[C@H](O)[C@@H](n2cc(-c3cc(F)c(F)c(F)c3)nn2)[C@H]1O [Example 2.44.125R., (2S,3R,4S,5R,6R)-2-(((R)-(4,4-Difluoro-1-hydroxycyclohexyl)(3-(trifluoromethyl)pyridin-2-yl)methyl)thio)-6-(hydroxymethyl)-4-(4-(3,4,5-trifluorophenyl)-1H-1,2,3-triazol-1-yl)tetrahydro-2H-pyran-3,5-diol] | 200 nM | 50 nM | – | – |
| CO[C@@H]1[C@@H](n2cc(-c3cc(F)c(F)c(F)c3)nn2)[C@@H](O)[C@@H](CO)O[C@H]1S[C@H](c1ncccc1C(F)(F)F)C1(O)CCC(F)(F)CC1 [Example 2.44.125R.I., (2R,3R,4S,5R,6S)-6-(((R)-(4,4-Difluoro-1-hydroxycyclohexyl)(3-(trifluoromethyl)pyridin-2-yl)methyl)thio)-2-(hydroxymethyl)-5-methoxy-4-(4-(3,4,5-trifluorophenyl)-1H-1,2,3-triazol-1-yl)tetrahydro-2H-pyran-3-ol] | 260 nM | – | – | IC50 (human Gal-3 (hGal-3); [3]): 60 nM |
| OC[C@H]1O[C@@H](S[C@@H](c2ncccc2C(F)(F)F)C2(O)CCC(F)(F)CC2)[C@H](O)[C@@H](n2cc(-c3cc(F)c(F)c(F)c3)nn2)[C@H]1O [Example 2.44.125S., (2S,3R,4S,5R,6R)-2-(((S)-(4,4-Difluoro-1-hydroxycyclohexyl)(3-(trifluoromethyl)pyridin-2-yl)methyl)thio)-6-(hydroxymethyl)-4-(4-(3,4,5-trifluorophenyl)-1H-1,2,3-triazol-1-yl)tetrahydro-2H-pyran-3,5-diol] | 3410 nM | 820 nM | – | – |
| Cc1cccnc1C(S[C@@H]1O[C@H](CO)[C@H](O)[C@H](n2cc(-c3cc(F)c(F)c(F)c3)nn2)[C@H]1O)C1(O)CCC(F)(F)CC1 (stereo partly drawn) [Example 2.44.126., (2S,3R,4S,5R,6R)-2-(((4,4-Difluoro-1-hydroxycyclohexyl)(3-methylpyridin-2-yl)methyl)thio)-6-(hydroxymethyl)-4-(4-(3,4,5-trifluorophenyl)-1H-1,2,3-triazol-1-yl)tetrahydro-2H-pyran-3,5-diol] | 60 nM | – | 60 nM | – |
| CCO[C@@H]1[C@@H](n2cc(-c3cc(F)c(F)c(F)c3)nn2)[C@@H](O)[C@@H](CO)O[C@H]1SC(c1ncccc1C)C1(O)CCC(F)(F)CC1 (stereo partly drawn) [Example 2.44.126.II., (2R,3R,4S,5R,6S)-6-(((4,4-Difluoro-1-hydroxycyclohexyl)(3-methylpyridin-2-yl)methyl)thio)-5-ethoxy-2-(hydroxymethyl)-4-(4-(3,4,5-trifluorophenyl)-1H-1,2,3-triazol-1-yl)tetrahydro-2H-pyran-3-ol] | 1320 nM | – | 160 nM | – |
| Cc1cccnc1[C@@H](S[C@@H]1O[C@H](CO)[C@H](O)[C@H](n2cc(-c3cc(F)c(F)c(F)c3)nn2)[C@H]1O)C1(O)CCC(F)(F)CC1 [Example 2.44.126R., (2S,3R,4S,5R,6R)-2-(((R)-(4,4-Difluoro-1-hydroxycyclohexyl)(3-methylpyridin-2-yl)methyl)thio)-6-(hydroxymethyl)-4-(4-(3,4,5-trifluorophenyl)-1H-1,2,3-triazol-1-yl)tetrahydro-2H-pyran-3,5-diol] | 300 nM | – | 40 nM | – |
| CO[C@@H]1[C@@H](n2cc(-c3cc(F)c(F)c(F)c3)nn2)[C@@H](O)[C@@H](CO)O[C@H]1S[C@H](c1ncccc1C)C1(O)CCC(F)(F)CC1 [Example 2.44.126R.I., (2R,3R,4S,5R,6S)-6-(((R)-(4,4-Difluoro-1-hydroxycyclohexyl)(3-methylpyridin-2-yl)methyl)thio)-2-(hydroxymethyl)-5-methoxy-4-(4-(3,4,5-trifluorophenyl)-1H-1,2,3-triazol-1-yl)tetrahydro-2H-pyran-3-ol] | 680 nM | – | – | IC50 (human Gal-3 (hGal-3); [3]): 70 nM |
| CCO[C@@H]1[C@@H](n2cc(-c3cc(F)c(F)c(F)c3)nn2)[C@@H](O)[C@@H](CO)O[C@H]1S[C@H](c1ncccc1C)C1(O)CCC(F)(F)CC1 [Example 2.44.126R.II., (2R,3R,4S,5R,6S)-6-(((R)-(4,4-Difluoro-1-hydroxycyclohexyl)(3-methylpyridin-2-yl)methyl)thio)-5-ethoxy-2-(hydroxymethyl)-4-(4-(3,4,5-trifluorophenyl)-1H-1,2,3-triazol-1-yl)tetrahydro-2H-pyran-3-ol] | 870 nM | – | 110 nM | – |
| Cc1cccnc1[C@H](S[C@@H]1O[C@H](CO)[C@H](O)[C@H](n2cc(-c3cc(F)c(F)c(F)c3)nn2)[C@H]1O)C1(O)CCC(F)(F)CC1 [Example 2.44.126S., (2S,3R,4S,5R,6R)-2-(((S)-(4,4-Difluoro-1-hydroxycyclohexyl)(3-methylpyridin-2-yl)methyl)thio)-6-(hydroxymethyl)-4-(4-(3,4,5-trifluorophenyl)-1H-1,2,3-triazol-1-yl)tetrahydro-2H-pyran-3,5-diol] | 26500 nM | – | 3350 nM | – |
| CCO[C@@H]1[C@@H](n2cc(-c3cc(F)c(F)c(F)c3)nn2)[C@@H](O)[C@@H](CO)O[C@H]1S[C@@H](c1ncccc1C)C1(O)CCC(F)(F)CC1 [Example 2.44.126S.II., (2R,3R,4S,5R,6S)-6-(((S)-(4,4-Difluoro-1-hydroxycyclohexyl)(3-methylpyridin-2-yl)methyl)thio)-5-ethoxy-2-(hydroxymethyl)-4-(4-(3,4,5-trifluorophenyl)-1H-1,2,3-triazol-1-yl)tetrahydro-2H-pyran-3-ol] | 24300 nM | – | 980 nM | – |
